Assay results reported in patent US4637901A, “N-(alpha-haloacyl)-N-hydrocarbyl carbamoyl halides” (priority 1985, dated 1987).
Values after ≈ are worked out from the molar mass of the structure shown.

Legend:
Type in all cases: in vivo
[1] = test system: certain mites and insects including the Bean Aphid, Southern Army Worm, Mexican Bean Beetle and house fly; assay: Pesticidal activity against certain mites and insects (overall comparison); conditions: for activity in words (comparison as set forth in Table I): prior art derivatives compared with derivatives of the invention
Protocol: A comparision of an oxime derivative of the novel compounds of this invention was evaluated to determine its pesticidal activity against certain mites and insects including the Bean Aphid, Southern Army Worm, Mexican Bean Beetle and house fly. The oxime derivative was also compared with typical derivative of this oxime as disclosed in British Pat. No. 1,226,450.
(§1) Suspensions of the test compounds were prepared by dissolving one gram of compound in 50 milliliters of acetone in which had been dissolved 0.1 gram (10 percent of the weight of compound) of an alkylphenoxy polyethoxyethanol surfactant, as an emulsifying or dispersing agent. The resulting solution was mixed into 150 milliliters of water to give roughly 200 milliliters of a suspension containing the compound in finely divided form. The thus-prepared stock suspension contained 0.5 percent by weight of compound.
(§2) Certain of the test compounds were also prepared by dissolving 375 mg of compound in 7.5 ml of dimethylformamide. Fifteen ml of acetone containing 37.5 mg (10 percent of the weight of test compound) of an alkylphenoxy polyethoxyethanol surfactant, as a wetting/emulsifying/dispersing agent was added to the dimethylformamide solution. Fifty-two and a half ml of water was mixed into the dimethylformamide-acetone mixture to give roughly 75 ml of a suspension containing the compound in solution or in finely divided form. The thus prepared stock suspension contained 0.5 percent by weight of compound. The test concentrations in parts per million by weight employed in the tests described hereinbelow were obtained by appropriate dilutions of the stock suspension with water.

[2] = test system: Southern Armyworm (Spodoptera eridania, (Cram.)) larvae; assay: Southern Armyworm Leaf Spray Bait Test; conditions: 120 h, five days, read-out: Biological activity (LD50 in ppm), Southern Army Worm
Protocol: as §1
as §2, with “water. The test procedures were as follows:” for “water.”
Southern Armyworm Leaf Spray Bait Test
Larvae of the southern armyworm (Spodoptera eridania, (Cram.)), reared on Tendergreen bean plants at a temperature of 80°±5° F. and a relative humidity of 50±5 percent, constituted the test insects.
The test compounds were formulated by diluting the stock suspension with water to give a suspension containing 500 parts of test compound per million parts of final formulation. Potted Tendergreen bean plants of standard height and age were placed on a revolving turntable and sprayed with 100-110 milliliters of test compound formulation by use of a DeVilbiss spray gun set at 40 psig air pressure. This application, which lasted 25 seconds, was sufficient to wet plants to run-off. […] Percent mortality was recorded for various concentration levels.

[3] = test system: House Fly (Musca domestica, L.); assay: Fly Bait Test; conditions: 24 h, adult flies, sugar bait, twenty-four hours, read-out: Biological activity (LD50 in ppm), House Fly
Protocol: as §1
as §2, with “water. The test procedures were as follows:” for “water.”
Four to six day old adult house flies (Musca domestica, L.), reared according to the specifications of the Chemical Specialties Manufacturing Association (Blue Book, McNair-Dorland Co., N.Y. 1954; pages 243-244, 261) under controlled conditions of 80°±5° F. and 50±5 percent relative humidity, were the test insects. The flies were immobilized by anesthetizing with carbon dioxide and twenty-five immobilized individuals, males and females, were transferred to a cage consisting of a standard food strainer about five inches in diameter which was inverted over a wrapping-paper-covered surface. […]

[4] = test system: Bean Aphid (Aphis fabae Scop.); assay: Bean Aphid Foliage Spray Test; conditions: foliar, potted dwarf nasturtium plants, 24 hour holding period, read-out: Biological activity (LD50 in ppm), Bean Aphid
Protocol: as §1
as §2, with “water. The test procedures were as follows:” for “water.”
Bean Aphid Foliage Spray Test
Adults and nymphal stages of the bean aphid (Aphis fabae Scop.) reared on potted dwarf nasturtrium plants at 68°-70° F. and 50±5 percent relative humidity, constituted the test insects. For testing purposes, the number of aphids per pot was standardized to 100-150 by trimming plants containing excess aphids. […]
The potted plants (one pot per compound tested) infested with 100-150 aphids were placed on a revolving turntable and sprayed with 100-110 milliliters of test compound formulation by use of a DeVilbiss spray gun set at 40 psig air pressure. […] Percent mortality was recorded for various concentration levels.

[5] = test system: Mexican Bean Beetle (Epilachna varivestis, Muls.) larvae; assay: Mexican Bean Beetle Leaf Spray Test; conditions: 120 h, five days, read-out: Biological activity (LD50 in ppm), Mexican Bean Beetle
Protocol: as §1
as §2, with “water. The test procedures were as follows:” for “water.”
Mexican Bean Beetle Leaf Spray Test
Fourth instar larvae of the Mexican bean beetle (Epilachna varivestis, Muls.), reared on Tendergreen bean plants at a temperature of 80°±5° F. and 50±5 percent relative humidity, were the test insects.
For certain of the tests second instar larvae (weighing about 6 mg) of the Mexican bean beetle (Epilachna varvestis, Muls), reared on Seiva Pole lima bean plants at a temperature of 80°±5° F. and […] relative humidity, were the test insects.
The test compounds were formulated by diluting the stock suspension with water to give a suspension containing 500 parts of test compound per million parts of final formulation. […]

SMILES	pesticidal properties (in words) ([1]; trimethyl amine salt of the N-haloacylcarbamate)	LC50 [2] [µg/mL]	activity in words (comparison as set forth in Table I) [1]	LC50 [3] [µg/mL]	LC50 [4] [µg/mL]	LC50 [5] [µg/mL]
COC(=O)Nc1ccc(OC(=O)N(C)C(=O)C[N+](C)(C)C)cc1C(C)C	excellent pesticidal properties					
CCC(=O)N(C)C(=O)ON=C(C)SC [(XIVb)]		60 (≈ 275 µM)	less active or inactive	500 (≈ 2290 µM)	500 (≈ 2290 µM)	200 (≈ 916 µM)
CSC(C)=NOC(=O)N(C)C(=O)CCCCl [(XIVa)]		310 (≈ 1160 µM)	less active or inactive	25 (≈ 93.7 µM)	37 (≈ 139 µM)	310 (≈ 1160 µM)
CSC(C)=NOC(=O)N(C)C(=O)CCl [(XII)]		20 (≈ 83.8 µM)		6 (≈ 25.1 µM)	16 (≈ 67 µM)	35 (≈ 147 µM)
